In patent US20050272737A1, “Combined treatment with irinotecan and an epidermal growth factor receptor kinase inhibitor” (priority 2004, published 2005):
Where two headings read alike, the source gives them in different places.

Experiments:
[1] = cited from earlier work
in vivo = assay: in vivo
Description: The dose of 60 mg/kg was selected as the rational maximum therapeutic dose based on investigator experience with this agent.

[2] = system: LoVo colorectal xenograft; assay: Anti-tumor efficacy in LoVo human colorectal xenograft in nude mice (study 525; also experiment 540); format: in vivo, female athymic nu/nu mice
Description: (§1) In this study, the drugs were combined at their respective maximum tolerated dose (MTD) and also combined together at sub-optimal doses. All doses included in the combination groups were also included in the study as monotherapy arms. The attempt was to achieve maximum efficacy/regression without increased toxicity.
(§2) The health of all animals was determined daily by gross observation of experimental animals and by the analyses of blood samples of sentinel animals that were housed on the shared shelf racks. All animals were allowed to acclimate and recover from any shipping related stress for one week prior to experimental manipulation. […] Cages, bedding and water bottles were autoclaved before use and were changed weekly. […] All in vivo experiments were performed in accordance with protocols approved by the Roche Animal Care and Use Committee (RACUC). The Roche animal care facility is fully accredited by the American Association for the Accreditation of Lab Animal Care (AAALAC).
LoVo cells were grown in F-12K+20% FBS (not heat inactivated) and harvested. 5×10^6 cells/0.2 ml/mouse in PBS (Phosphate Buffered Saline) were implanted subcutaneously in the right flank on Jul.
(§3) Formulated compound was made up in one batch for the entire 3 week study.
(§4) An aliquot of the stock vial solutions was taken for each dose group representing the drug needed for that group for the entire study duration and diluted out further with sterile saline, to provide a solution that renders a 0.2 ml dosing volume for each individual animal.
For study […], animals were randomized according to tumor volume on day 17 post tumor implantation so that all groups had similar starting mean tumor volumes of 100-150 mm^3.
[…] Treatment ended on Aug. […] No end of study drug exposure analysis was performed on this study.
(§5) Tumor measurements and mouse weights were taken two-three times per week for LoVo and HCT116. All animals were individually followed throughout the experiment.
(§6) Efficacy data was graphically represented as the mean tumor volume+standard error of the mean (SEM).
(§7) Tumor volume (in cubic millimeters) was calculated using the ellipsoid formula: (D×(d2))/2 • where ‘D’ represents the large diameter of the tumor, and ‘d’ represents the small diameter.
(§8) In some cases, tumor regression and/or percent change in tumor volume was calculated using the formula: ((T−T0)/T0)×100 • where ‘T’ represents mean tumor volume of the treated group at a particular day and ‘T0’ represents mean tumor volume of the same treated group at initiation of treatment.
(§9) Statistical analysis was determined by the rank sum test and One Way Anova and a post-hoc Bonferroni t-test (SigmaStat, version 2.0, Jandel Scientific, San Francisco, Calif.).

[3] = system: HCT116 colorectal xenograft; assay: Anti-tumor efficacy in HCT116 human colorectal xenograft in nude mice (study 531); format: in vivo, female athymic nu/nu mice; settings: for classification of the HCT116 tumor line towards the agent: therapeutic doses: Tarceva 100 mg/kg qd, Iressa 150 mg/kg
Description: as §1, §2
HCT-116 cells were grown in McCoy's 5A Modified Medium +10% FBS and harvested. 3×10^6 cells/0.2 ml/mouse in PBS (Phosphate Buffered Saline) were implanted subcutaneously in the right flank on Jul.
as §3, §4
(§10) Tarceva™ was administered using a 1 cc syringe and 18-gauge gavage needles (0.2 ml/animal). […] All groups were treated q4d for 3 weeks (total 6 injections). Treatment ended on Aug. […] No end of study of drug exposure analysis was performed on this study.
as §5, §6, §7, §8, §9

[4] = study 531; for toxicity and unscheduled deaths: single agent groups and low dose combination (25/15 mg/kg)
Description: as §2, §10
A full necropsy was performed on five mice per treatment from all remaining groups, Whole blood was also collected for hematology and clinical chemistry. Tumors were removed and fixed in zinc formalin and subsequently embedded in paraffin. Immunohistochemistry can be performed on these sections to assess apoptosis via TUNEL and proliferative index via Ki67. Necrosis can also be assessed on H&E stained sections.
as §5
Weight loss was graphically represented as percent change in mean group body weight, using the formula: ((W−W0)/W0)×100 • where ‘W’ represents mean body weight of the treated group at a particular day, and ‘W0’ represents mean body weight of the same treated group at initiation of treatment.

[5] = Toxicity (body weight, deaths, clinical signs, necropsy) in LoVo study 525; format: in vivo, female nude mice; settings: Tarceva 100 mg/kg monotherapy
Description: Female nude mice (10/group), obtained from Charles River Laboratories (Wilmington, Mass.) at an age of 4-6 weeks, and were used when they were ˜10-12 weeks old and weighed ˜23-25 grams.
For efficacy study 525, treatment began on Jul. […] Treatment ended on Aug. 19, 2002 (Day 38 post-tumor implant). No end of study drug exposure analysis was performed on this study.
All animals were individually followed throughout the experiment.

[6] = system: LoVo colorectal xenograft; assay: Anti-tumor efficacy in LoVo human colorectal xenograft in nude mice (study 525; also experiment 540); format: in vivo, female athymic nu/nu mice; remark: listed apart in the source
[7] = Tarceva 25 mg/kg qd monotherapy, study 525, day 38

O=c1[nH]cc(F)c(=O)[nH]1 [5-fluorouracil]
response rate ([1]; single-agent treatment, advanced colorectal cancer): about 10%

CCc1c2c(nc3ccc(OC(=O)N4CCC(N5CCCCC5)CC4)cc13)-c1cc3c(c(=O)n1C2)COC(=O)[C@]3(O)CC [CPT-11]
MTD at 3 weeks (in vivo; female, mouse, in vivo, iv): 66 mg/kg
Tumor growth inhibition (TGI) ([2]; CPT-11 15 mg/kg q4d iv monotherapy, study 525): 93%
tumors partially regressed ([2]; CPT-11 60 mg/kg q4d iv monotherapy, study 525): 90%
Tumor growth inhibition (TGI) ([2]; CPT-11 60 mg/kg q4d iv monotherapy, study 525, day 38): > 100%
Tumor growth inhibition (TGI) ([3]; CPT-11 15 mg/kg q4d iv monotherapy, study 531): 73%
tumors partially regressed ([3]; CPT-11 60 mg/kg q4d iv monotherapy, study 531): 70%
Tumor growth inhibition (TGI) ([3]; CPT-11 60 mg/kg q4d iv monotherapy, study 531, day 35): > 100%
toxicity and unscheduled deaths [4]: No toxicity or unscheduled deaths

COc1cc2ncnc(Nc3ccc(F)c(Cl)c3)c2cc1OCCCN1CCOCC1 [Iressa™]
classification of the HCT116 tumor line towards the agent [3]: refractory
toxicity and unscheduled deaths [4]: No toxicity or unscheduled deaths

C#Cc1cccc(Nc2ncnc3cc(OCCOC)c(OCCOC)cc23)c1 [Tarceva™, [6,7-bis(2-methoxyethoxy)-4-quinazolin-4-yl]-(3-ethynylphenyl) amine]
tolerability (in vivo; Tarceva 150 mg/kg once a day in CMC/Tween for 3 weeks, previous efficacy studies): tolerated well
tolerability (in vivo; Tarceva 200 mg/kg qd, CMC/Tween, MTD study): toxicity
MTD at 14 days (in vivo; female, mouse, in vivo): 100 mg/kg
skin finding [5]: classic reddening of the skin
Tumor growth inhibition (TGI) ([2]; Tarceva 100 mg/kg, experiment 540): 98%
tumors partially regressed ([2]; Tarceva 100 mg/kg, experiments 525 and 540): 40-60%
mice showing partial regressions (PR) ([2]; erlotinib 100 mg/kg, fraction of mice): 6/10
single agent tumor efficacy / tumor growth inhibition ([3]; Tarceva 25 mg/kg qd monotherapy, study 531, day 35): not seen
single agent tumor efficacy / tumor growth inhibition ([3]; Tarceva 25 mg/kg qd monotherapy, study 531, day 35, listed as erlotinib): did not render significant tumor growth inhibition
single agent tumor efficacy / tumor growth inhibition ([3]; Tarceva 100 mg/kg qd monotherapy, study 531, day 35 post tumor implant): not seen
single agent tumor efficacy / tumor growth inhibition ([3]; Tarceva 100 mg/kg qd monotherapy, study 531, day 35 post tumor implant, listed as erlotinib): did not render significant tumor growth inhibition
classification of the HCT116 tumor line towards the agent [3]: refractory
tumor regression ([6]; Tarceva 25 mg/kg qd monotherapy, study 525): no regression
% T/C [6, 7]: 21%
Tumor growth inhibition (TGI) [6, 7]: 79%
Tumor growth inhibition ([6]; Tarceva 25 mg/kg qd, experiments 525 and 540): 53-79%
tumors with partial regression ([6]; Tarceva 100 mg/kg qd oral monotherapy, study 525): 60%
% T/C ([6]; Tarceva 100 mg/kg qd oral monotherapy, study 525, day 38): −2%
Tumor growth inhibition (TGI) ([6]; Tarceva 100 mg/kg qd oral monotherapy, study 525, day 38 post tumor implant): > 100%
skin finding ([4]; Tarceva 100 mg/kg monotherapy): classic reddening of the skin
toxicity and unscheduled deaths [4]: No toxicity or unscheduled deaths

O=C(O)C(=O)O.[NH-][C@@H]1CCCC[C@H]1[NH-].[Pt+2] [oxaliplatin]
response rate ([1]; combined with 5-FU and leucovorin, first-line treatment for colorectal cancer): 25-40%
